Source: patent US8444953B2, “Symmetric and asymmetric halogen-containing metallocarboranylporphyrins and uses thereof” (Brookhaven Science Associates, LLC, priority 2007, dated 2013)
Marks after values point to notes of the source that are not given here.

Legend:
[1] = test system: BALB/c mice bearing subcutaneously implanted EMT-6 mammary carcinomas; test: Biodistribution of porphyrin XV in mice bearing EMT-6 carcinomas (boron analyses of tissues); assay type: in vivo; details: 220 mg/kg (43 mg B/kg), 6 i.p. injections over 2 days, median (range), n = 5
Method: Porphyrin compound (XV) was emulsified in 9% Cremophor EL and 18% propylene glycol in saline.
To prepare a solution of ˜3.7 mg/mL porphyrin in 9% Cremophor EL (CRM) and 18% propylene glycol (PRG), the porphyrin was dissolved in tetrahydrofuran (THF) (1.5% of the total volume) and then heated to 40° C. for 15 min. CRM (9% of total volume) was then added and the mixture was heated to 60° C., for 2 hours, which removed most of the THF. After cooling to room temperature, PRG (18% of total volume) was added, followed by slow dropwise addition of saline (71.5% of total volume) with rapid stirring. The solution was degassed by stirring under vacuum (˜30 mm Hg) for 30-60 min and then filtered (Millipore, 8 μm).
BALB/c mice bearing subcutaneously implanted EMT-6 mammary carcinomas implanted on the dorsal thorax were given a total dose of 220 milligrams porphyrin compound XV per kilogram body weight (43 mg B/kg). At one and two days after the last injection, mice were euthanized, and tumor, blood, brain, and liver were removed for boron analyses. The blood was first analyzed for hematologic parameters that indicate toxicity before it was analyzed for boron.

[2] = Weight changes and hematologic parameters that indicate toxicity; assay type: in vivo, mice; details: for % Weight change / Granulocytes / Lymphocytes / Platelets: 220 mg/kg (43 mg B/kg), median (range)
[3] = mice, 1 day after last injection
[4] = mice, 2 days after last injection

With “Copper (II) 5,10,15-tris[3-o-carboranylmethoxyphenyl]-20-[2,6-difluorophenyl]porphyrin [Porphyrin XV]” the “Average boron concentration, Blood” value ([1]; 1 day after last injection) was 47 (38-121) μg B/g, the “Average boron concentration, Brain” value ([1]; 1 day after last injection) was 1.0 (0.6-1.7) μg B/g and the “Average boron concentration, EMT-6 Tumor” value ([1]; 1 day after last injection) was 66 (24-153) μg B/g. The “Average boron concentration, Liver” value ([1]; 1 day after last injection) was 300 (245-319) μg B/g, the “Average boron concentration, Skin (pinna)” value ([1]; 1 day after last injection) was 5.9 (4.9-9.9) μg B/g and the “Average boron concentration, Blood” value ([1]; 2 days after last injection) was 0.4 (0.3-4.5) μg B/g. For the same substance, the “Average boron concentration, Brain” value ([1]; 2 days after last injection) was 0.1 (0-0.2) μg B/g, the “Average boron concentration, EMT-6 Tumor” value ([1]; 2 days after last injection) was 88 (44-115) μg B/g and the “Average boron concentration, Liver” value ([1]; 2 days after last injection) was 375 (364-419) μg B/g. The “Average boron concentration, Skin (pinna)” value ([1]; 2 days after last injection) was 6.6 (3.6-8.1) μg B/g, the “median % weight loss (in words)” value ([2]; mice receiving porphyrin, 220 mg/kg) was “not significant” and the “% Weight change” value [2, 3] was −0.6 (−3.4-3.3) %. The Granulocytes [2, 3] was 52 (49.8-65.1), the Lymphocytes [2, 3] was 44.3 (31.8-46.5)^b and the Platelets [2, 3] was 374 (158-879)^a. The “% Weight change” value [2, 4] was −0.2 (−3.3-3.8) %, the Granulocytes [2, 4] was 54.0 (52.4-57.8) and the Lymphocytes [2, 4] was 42.6 (38.4-44.1). The Platelets [2, 4] was 478 (91-661)^b and the “toxicity (in words)” value ([2]; mice, 220 mg/kg, weight and hematologic parameters) was “quite mild and transient”.
